Tested on: HIF-1, HIF-2 and p300 recruitment to HREs
Assay: ChIP-qPCR of HRE occupancy in Hep3B cells
Type: cell-based, human
Settings: 16 hours, 5 µM 32-134D or 10 µM PT2385
Method: Coadministration of the proteasome inhibitor MG-132 blocked the effect of 32-134D on HIF-1α protein levels (Figure 1H). […] Taken together, the results presented in Figure 1 and Supplemental Figures 1–3 indicate that 32-134D induces HIF-α subunit degradation, thereby inhibiting activation of HIF-1 and HIF-2 target gene transcription.
Cells were seeded overnight and then exposed to 20% or 1% O2 in the presence of compound or vehicle for 16 hours. Protein was cross-linked to DNA by addition of 37% formaldehyde to culture medium for 10 minutes at 37°C and quenched by addition of 0.1 M glycine. Cells were washed with and collected in 5 mL of cold PBS containing PIs. Cells were pelleted and resuspended in 200 μL of SDS lysis buffer (50 mM Tris-HCl [pH 8.1], 10 mM EDTA, 1% SDS) containing PIs and incubated on ice for 10 minutes. Lysates were sonicated to produce DNA fragments ranging from 200 to 900 bp and centrifuged for 10 minutes at 4°C. Supernatants were collected and diluted 10-fold with dilution buffer (16.7 mM Tris-HCl [pH 8.1], 167 mM NaCl, 1.2 mM EDTA, 0.01% SDS, 1.1% Triton X-100) with PIs, precleared with 20 μL of salmon sperm DNA/protein A agarose slurry, and a 20-μL aliquot was reserved as input control. Antibody (2 μg; see Supplemental Table 6) was added and samples were rotated overnight at 4°C. Immune complexes were precipitated with 50 μL of salmon sperm DNA/protein A agarose slurry. Pelleted beads were washed serially using low-salt wash buffer (20 mM Tris-HCl [pH 8.1], 150 mM NaCl, 2 mM EDTA, 0.1% SDS, 1% Triton X-100); high-salt wash buffer (20 mM Tris-HCl [pH 8.1], 500 mM NaCl, 2 mM EDTA, 0.1% SDS, 1% Triton X-100); LiCl wash buffer (10 mM Tris-HCl [pH 8.1], 0.25 M LiCl, 1% Nonidet P-40, 1% deoxycholate, 1 mM EDTA); and TE buffer (10 mM Tris-HCl [pH 8.1], 1 mM EDTA). Elution buffer (1% SDS, 0.1 M NaHCO3) was added and eluates were heated at 65°C overnight to reverse cross-linking. Eluates were treated with proteinase K for 1 hour at 45°C and DNA was purified by extraction in phenol/chloroform/isoamyl alcohol (25:24:1, v/v/v) and isopropanol precipitation. […]

Q: Which “hypoxia-induced recruitment of HIFs and p300 to EPO and ANGPTL4 HREs” value does the source give for `Brc1ccc2c(-c3csc(-c4c[nH]c5c(Br)cccc45)n3)c[nH]c2c1` [Compound 32-134D] here?
A: impaired

Q: What about the “hypoxia-induced recruitment of HIFs and p300 to the CA9 HRE” value of the same compound?
A: impaired
